According to US20090306116A1, “PYRIMIDINE DERIVATIVES FOR THE INHIBITION OF IGF-IR TYROSINE KINASE ACTIVITY” (AstraZeneca AB, priority 2005, published 2009):

Tested on: murine fibroblasts (NIH3T3) over-expressing human IGF-1 receptor
Experiment: Inhibition of IGF-stimulated cell proliferation (BrdU incorporation), Test (c)
Format: cell-based
Details: inhibition of IGF-stimulated proliferation in NIH3T3 over-expressing human IGF-1 receptor
Procedure: The construction of murine fibroblasts (NIH3T3) over-expressing human IGF-1 receptor has been described by Lammers et al (EMBO J, 8, 1369-1375, 1989). These cells show a proliferative response to IGF-I which can be measured by BrdU incorporation into newly synthesised DNA. Compound potency was determined as causing inhibition of the IGF-stimulated proliferation in the following assay:
Cell Proliferation ELISA, BrdU (calorimetric) [Boehringer Mannheim (Diagnostics and Biochemicals) Ltd, UK. Cat no. 1 647 229].
DMEM, FCS, Glutamine, HBSS (all from Life Technologies Ltd., UK).
Human recombinant IGF-1 Animal/media grade (GroPep Limited ABN 78 008 176 298, Australia. Cat No. IU 100).
100 μg of lyophilised IGF was reconstituted in 100 ul of 10 mM HCl. Add 400 μl of 1 mg/ml BSA in PBS 25 μl aliquots @ 200 μg/ml IGF-1
10 μl of stock IGF+12.5 ml growth medium to give 8× stock of 160 ng/ml.
DMEM, 10% FCS, 2 mM glutamine.
DMEM, 1% charcoal/dextran stripped FCS, 2 mM glutamine.
Compounds are initially dissolved in DMSO to 10 mM, followed by dilutions in DMEM+1% FCS+glutamine to give a range from […] in 1-0.00045% DMSO final concentration in assay well. […]
The incorporation of BrdU in the cells (after a 4 h incorporation period) was assessed using the BrdU Cell Proliferation Elisa according to the manufacturer's protocol. […]

Row | Compound | IC50 [µM]
1 | Cc1cc(Nc2nccs2)nc(N2CCC[C@H]2c2cc(-c3ccccn3)no2)n1 [Example 1, S-6-Methyl-4-(2-thiazolylamino)-2-{2-[3-(pyrid-2-yl)isoxazol-5-yl]pyrrolidin-1-yl}pyrimidine] | 0.17
2 | Cc1cc(Nc2ncc[nH]2)nc(N2CCC[C@H]2c2cc(-c3ccccn3)no2)n1 [Example 23, S-6-Methyl-4-(imidazol-2-ylamino)-2-{2-[3-(pyridin-2-yl)isoxazol-5-yl]pyrrolidin-1-yl}pyrimidine] | 0.45
